From ChEMBL document CHEMBL5291721, “A preclinical secondary pharmacology resource illuminates target-adverse drug reaction associations of marketed drugs” (Nat Commun, 2023)

Tests used:
[1] = molecular target: cGMP-inhibited 3',5'-cyclic phosphodiesterase 3A (Homo sapiens, UniProt Q14432); type: functional
[2] = molecular target: T1, Muscarinic acetylcholine receptor M2 (Homo sapiens, UniProt P08172); type: functional, cell-based
T1 sequence (P08172 whole entry): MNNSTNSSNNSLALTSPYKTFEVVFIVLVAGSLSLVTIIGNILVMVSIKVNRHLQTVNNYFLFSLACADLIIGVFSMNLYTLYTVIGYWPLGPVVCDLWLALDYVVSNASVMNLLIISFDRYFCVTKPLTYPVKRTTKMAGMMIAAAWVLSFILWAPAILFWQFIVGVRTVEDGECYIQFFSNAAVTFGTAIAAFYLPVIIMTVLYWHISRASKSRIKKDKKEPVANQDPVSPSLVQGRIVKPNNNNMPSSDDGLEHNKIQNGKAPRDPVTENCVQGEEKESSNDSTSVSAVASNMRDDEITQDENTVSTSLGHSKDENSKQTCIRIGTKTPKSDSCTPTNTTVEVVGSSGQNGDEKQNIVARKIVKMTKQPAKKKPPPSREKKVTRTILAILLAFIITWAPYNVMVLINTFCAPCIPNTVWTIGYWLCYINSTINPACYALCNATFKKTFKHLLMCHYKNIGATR

[3] = molecular target: T2, Muscarinic acetylcholine receptor M1 (Homo sapiens, UniProt P11229); type: functional, cell-based
T2 sequence (P11229 whole entry): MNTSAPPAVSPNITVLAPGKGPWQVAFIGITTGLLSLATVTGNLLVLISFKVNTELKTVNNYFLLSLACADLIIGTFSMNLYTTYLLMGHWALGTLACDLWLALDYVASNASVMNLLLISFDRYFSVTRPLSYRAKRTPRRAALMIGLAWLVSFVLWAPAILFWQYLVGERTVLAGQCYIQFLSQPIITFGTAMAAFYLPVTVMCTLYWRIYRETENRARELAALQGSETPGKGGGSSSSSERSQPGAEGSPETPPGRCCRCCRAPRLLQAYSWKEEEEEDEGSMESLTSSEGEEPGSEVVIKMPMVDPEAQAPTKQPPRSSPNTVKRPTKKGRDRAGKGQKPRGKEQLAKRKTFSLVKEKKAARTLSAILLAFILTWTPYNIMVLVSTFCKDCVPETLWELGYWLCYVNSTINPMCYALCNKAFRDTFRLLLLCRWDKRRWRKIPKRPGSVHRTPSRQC

Adenosine receptor A3 = molecular target: T3, Adenosine receptor A3 (Homo sapiens, UniProt P0DMS8)
T3 sequence (P0DMS8 whole entry): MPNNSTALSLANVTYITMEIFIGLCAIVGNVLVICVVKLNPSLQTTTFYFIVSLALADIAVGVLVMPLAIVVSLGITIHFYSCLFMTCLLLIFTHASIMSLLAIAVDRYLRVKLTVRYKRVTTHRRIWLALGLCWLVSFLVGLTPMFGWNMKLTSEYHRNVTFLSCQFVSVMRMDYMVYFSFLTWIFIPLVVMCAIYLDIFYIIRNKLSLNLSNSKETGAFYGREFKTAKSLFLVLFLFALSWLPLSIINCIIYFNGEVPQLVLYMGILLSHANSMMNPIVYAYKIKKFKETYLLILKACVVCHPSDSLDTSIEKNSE

[4] = molecular target: T1, Muscarinic acetylcholine receptor M2; type: functional, cell-based; remark: listed apart in the source
Adenosine receptor A2a = Adenosine receptor A2a (Homo sapiens, UniProt P29274)
[5] = molecular target: Gamma-aminobutyric acid receptor subunit alpha-1 (Rattus norvegicus, UniProt P62813); type: functional
[6] = molecular target: T4, 5-hydroxytryptamine receptor 2B (Homo sapiens, UniProt P41595); type: functional, cell-based
D(1A) dopamine receptor = D(1A) dopamine receptor (Homo sapiens, UniProt P21728); type: functional, cell-based
[7] = molecular target: T4, 5-hydroxytryptamine receptor 2B; type: functional, cell-based; remark: listed apart in the source
D(3) dopamine receptor = D(3) dopamine receptor (Homo sapiens, UniProt P35462)
[8] = molecular target: T5, Alpha-2A adrenergic receptor (Homo sapiens, UniProt P08913); type: functional, cell-based
T5 sequence (P08913 whole entry): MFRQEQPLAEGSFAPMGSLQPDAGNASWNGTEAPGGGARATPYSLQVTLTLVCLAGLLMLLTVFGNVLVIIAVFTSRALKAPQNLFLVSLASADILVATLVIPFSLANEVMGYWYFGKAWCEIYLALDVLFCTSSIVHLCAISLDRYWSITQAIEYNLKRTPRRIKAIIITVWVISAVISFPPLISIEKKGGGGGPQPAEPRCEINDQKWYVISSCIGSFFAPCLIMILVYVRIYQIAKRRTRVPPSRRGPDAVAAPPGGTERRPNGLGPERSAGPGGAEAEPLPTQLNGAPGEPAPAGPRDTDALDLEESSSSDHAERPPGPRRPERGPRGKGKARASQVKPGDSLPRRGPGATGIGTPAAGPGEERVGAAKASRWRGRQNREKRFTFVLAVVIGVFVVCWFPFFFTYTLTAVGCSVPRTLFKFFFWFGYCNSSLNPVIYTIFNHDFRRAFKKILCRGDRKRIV

[9] = molecular target: T6, Alpha-1A adrenergic receptor (Homo sapiens, UniProt P35348); type: functional, cell-based
T6 sequence (P35348 whole entry): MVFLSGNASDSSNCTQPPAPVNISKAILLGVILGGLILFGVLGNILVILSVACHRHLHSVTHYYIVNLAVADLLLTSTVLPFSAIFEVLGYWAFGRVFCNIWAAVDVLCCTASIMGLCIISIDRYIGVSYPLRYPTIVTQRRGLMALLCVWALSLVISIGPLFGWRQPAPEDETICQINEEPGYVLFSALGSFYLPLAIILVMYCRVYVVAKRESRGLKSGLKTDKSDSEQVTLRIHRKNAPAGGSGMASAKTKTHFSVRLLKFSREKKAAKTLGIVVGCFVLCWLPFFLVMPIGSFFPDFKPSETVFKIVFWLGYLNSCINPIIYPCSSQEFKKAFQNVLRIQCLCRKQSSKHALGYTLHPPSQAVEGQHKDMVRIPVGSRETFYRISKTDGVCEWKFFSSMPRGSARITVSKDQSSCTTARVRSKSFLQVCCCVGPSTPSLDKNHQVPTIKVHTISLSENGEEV
Note: assay procedure not described here.

Chain of Adenosine receptor A2a (P29274 whole entry): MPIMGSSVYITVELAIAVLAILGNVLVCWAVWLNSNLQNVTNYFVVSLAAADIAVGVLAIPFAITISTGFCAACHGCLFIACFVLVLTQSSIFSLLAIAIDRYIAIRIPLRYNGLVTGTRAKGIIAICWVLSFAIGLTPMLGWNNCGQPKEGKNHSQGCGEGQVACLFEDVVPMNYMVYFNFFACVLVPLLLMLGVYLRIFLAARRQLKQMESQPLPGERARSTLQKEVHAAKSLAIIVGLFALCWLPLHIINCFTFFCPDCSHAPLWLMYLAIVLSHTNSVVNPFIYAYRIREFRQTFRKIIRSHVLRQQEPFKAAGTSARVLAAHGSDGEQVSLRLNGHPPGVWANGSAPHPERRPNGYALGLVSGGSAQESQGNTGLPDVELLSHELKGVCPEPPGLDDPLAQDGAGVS
Chain of D(3) dopamine receptor (P35462 whole entry): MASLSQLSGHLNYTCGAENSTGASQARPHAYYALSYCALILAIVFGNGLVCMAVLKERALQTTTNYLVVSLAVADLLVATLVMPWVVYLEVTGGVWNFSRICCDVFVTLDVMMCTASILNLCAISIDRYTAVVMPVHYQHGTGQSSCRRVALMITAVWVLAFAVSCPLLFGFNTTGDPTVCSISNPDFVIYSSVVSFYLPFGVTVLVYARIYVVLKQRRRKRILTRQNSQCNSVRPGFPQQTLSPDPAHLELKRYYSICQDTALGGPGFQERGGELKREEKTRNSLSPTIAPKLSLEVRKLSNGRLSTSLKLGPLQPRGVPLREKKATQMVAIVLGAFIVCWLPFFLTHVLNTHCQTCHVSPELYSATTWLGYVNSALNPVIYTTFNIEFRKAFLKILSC
Chain of cGMP-inhibited 3',5'-cyclic phosphodiesterase 3A (Q14432 whole entry): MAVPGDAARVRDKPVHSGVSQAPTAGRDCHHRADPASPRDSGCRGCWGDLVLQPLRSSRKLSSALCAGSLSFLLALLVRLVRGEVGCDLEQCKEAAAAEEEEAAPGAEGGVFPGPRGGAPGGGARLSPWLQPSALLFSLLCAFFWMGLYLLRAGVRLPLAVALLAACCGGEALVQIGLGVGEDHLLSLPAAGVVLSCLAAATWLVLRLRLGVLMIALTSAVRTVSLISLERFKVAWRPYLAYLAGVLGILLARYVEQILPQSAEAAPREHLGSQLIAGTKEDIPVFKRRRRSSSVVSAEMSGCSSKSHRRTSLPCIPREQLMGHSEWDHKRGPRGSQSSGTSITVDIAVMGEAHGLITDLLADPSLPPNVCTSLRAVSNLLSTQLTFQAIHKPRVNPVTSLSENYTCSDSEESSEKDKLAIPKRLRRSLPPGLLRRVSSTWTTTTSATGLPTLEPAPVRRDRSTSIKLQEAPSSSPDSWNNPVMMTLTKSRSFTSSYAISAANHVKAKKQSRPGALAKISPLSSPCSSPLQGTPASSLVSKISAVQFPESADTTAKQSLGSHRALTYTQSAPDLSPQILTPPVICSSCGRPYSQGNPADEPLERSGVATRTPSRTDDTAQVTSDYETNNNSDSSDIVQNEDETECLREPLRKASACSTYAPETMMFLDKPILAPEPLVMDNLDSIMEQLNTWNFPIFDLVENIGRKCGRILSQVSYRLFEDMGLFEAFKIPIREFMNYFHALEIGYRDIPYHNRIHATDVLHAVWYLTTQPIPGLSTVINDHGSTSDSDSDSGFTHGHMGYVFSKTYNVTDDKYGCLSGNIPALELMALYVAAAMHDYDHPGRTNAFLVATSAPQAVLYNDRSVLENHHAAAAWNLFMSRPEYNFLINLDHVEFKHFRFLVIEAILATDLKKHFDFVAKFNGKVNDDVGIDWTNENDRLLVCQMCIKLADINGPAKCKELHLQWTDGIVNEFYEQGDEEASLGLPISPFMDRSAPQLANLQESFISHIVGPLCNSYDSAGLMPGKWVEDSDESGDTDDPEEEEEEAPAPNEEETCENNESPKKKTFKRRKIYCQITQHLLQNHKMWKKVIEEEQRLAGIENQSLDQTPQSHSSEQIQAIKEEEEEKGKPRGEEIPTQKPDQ
T4 sequence (P41595 whole entry): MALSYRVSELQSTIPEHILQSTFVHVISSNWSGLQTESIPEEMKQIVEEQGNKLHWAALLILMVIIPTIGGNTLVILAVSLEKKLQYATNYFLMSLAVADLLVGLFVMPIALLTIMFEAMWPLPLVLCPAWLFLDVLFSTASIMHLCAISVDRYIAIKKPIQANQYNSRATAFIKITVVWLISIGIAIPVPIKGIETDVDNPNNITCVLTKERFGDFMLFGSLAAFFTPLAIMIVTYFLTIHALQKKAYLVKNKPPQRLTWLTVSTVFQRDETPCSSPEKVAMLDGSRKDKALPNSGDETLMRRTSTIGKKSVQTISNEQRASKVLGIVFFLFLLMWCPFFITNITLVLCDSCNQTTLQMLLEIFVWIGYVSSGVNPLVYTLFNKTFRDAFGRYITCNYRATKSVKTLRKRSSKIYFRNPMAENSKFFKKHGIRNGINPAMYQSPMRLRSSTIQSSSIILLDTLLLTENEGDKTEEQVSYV
Chain of Gamma-aminobutyric acid receptor subunit alpha-1 (P62813 whole entry): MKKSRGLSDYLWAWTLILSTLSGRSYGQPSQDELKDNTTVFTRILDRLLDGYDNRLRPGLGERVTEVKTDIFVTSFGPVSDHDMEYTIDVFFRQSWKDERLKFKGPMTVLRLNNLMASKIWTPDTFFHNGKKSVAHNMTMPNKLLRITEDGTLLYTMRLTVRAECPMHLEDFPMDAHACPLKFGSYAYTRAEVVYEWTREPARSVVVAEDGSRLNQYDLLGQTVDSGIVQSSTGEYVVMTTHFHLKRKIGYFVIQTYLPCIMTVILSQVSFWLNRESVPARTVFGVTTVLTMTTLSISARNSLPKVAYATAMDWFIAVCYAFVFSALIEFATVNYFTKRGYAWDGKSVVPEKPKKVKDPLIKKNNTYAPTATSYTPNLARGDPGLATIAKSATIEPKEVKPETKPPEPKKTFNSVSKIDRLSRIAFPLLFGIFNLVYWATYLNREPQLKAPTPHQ
Chain of D(1A) dopamine receptor (P21728 whole entry): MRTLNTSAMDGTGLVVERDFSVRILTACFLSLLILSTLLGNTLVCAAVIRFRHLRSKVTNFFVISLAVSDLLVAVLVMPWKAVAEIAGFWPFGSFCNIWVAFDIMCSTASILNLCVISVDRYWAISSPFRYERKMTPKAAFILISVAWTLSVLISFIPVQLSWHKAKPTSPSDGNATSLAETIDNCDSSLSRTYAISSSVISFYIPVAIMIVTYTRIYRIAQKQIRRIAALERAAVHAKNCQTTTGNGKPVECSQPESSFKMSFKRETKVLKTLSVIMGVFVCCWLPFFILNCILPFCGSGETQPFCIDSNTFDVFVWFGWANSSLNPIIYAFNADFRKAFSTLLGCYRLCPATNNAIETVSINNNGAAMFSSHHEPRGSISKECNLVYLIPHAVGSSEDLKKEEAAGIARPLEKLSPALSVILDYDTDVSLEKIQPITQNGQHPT

Row | Compound | AC50 [1] | AC50 [2] | AC50 [3] | AC50 (Adenosine receptor A3) | AC50 [4] | AC50 (Adenosine receptor A2a) | AC50 [5] | AC50 [6] | AC50 (D(1A) dopamine receptor) | AC50 [7] | AC50 (D(3) dopamine receptor) | AC50 [8] | AC50 [9]
1 | O=C(O)c1cccc(-c2noc(-c3ccccc3F)n2)c1 | > 30 µM | > 10 µM | > 30 µM | > 30 µM | > 10 µM | > 30 µM | – | – | – | – | – | – | –
2 | O=C(Nc1ccccc1)OCC(CN1CCCCC1)OC(=O)Nc1ccccc1 (configuration not stated) [DIPERODON] | > 10 µM | > 30 µM | > 30 µM | > 30 µM | > 30 µM | > 30 µM | > 10 µM | > 10 µM | > 10 µM | 15 µM | 1.3 µM | > 10 µM | > 30 µM
3 | CS(=O)(=O)Nc1cc2occ(NC=O)c(=O)c2cc1Oc1ccccc1 [IGURATIMOD] | > 30 µM | – | > 30 µM | > 30 µM | – | – | – | > 30 µM | – | > 30 µM | > 30 µM | – | –
4 | O=C(O)CCn1c2c(c3ccccc31)C[C@H](NS(=O)(=O)c1ccc(F)cc1)CC2 [RAMATROBAN] | > 30 µM | > 10 µM | > 30 µM | > 30 µM | > 10 µM | > 30 µM | > 10 µM | > 10 µM | > 30 µM | > 10 µM | > 30 µM | > 10 µM | –
